Measured values taken from patent US20240217961A1 (MONOPTEROS THERAPEUTICS, INC., priority 2021, published 2024).
Converted amounts (≈) assume the structure as drawn. Read-outs that look alike come from different tables or passages of the source.

Legend:
human CYP2B6 = biological target: T1, human CYP2B6 (Homo sapiens, UniProt P20813); assay: CYP phenotyping, recombinant CYP enzyme incubation; assay type: in vitro ADME
T1 sequence (P20813 1-491): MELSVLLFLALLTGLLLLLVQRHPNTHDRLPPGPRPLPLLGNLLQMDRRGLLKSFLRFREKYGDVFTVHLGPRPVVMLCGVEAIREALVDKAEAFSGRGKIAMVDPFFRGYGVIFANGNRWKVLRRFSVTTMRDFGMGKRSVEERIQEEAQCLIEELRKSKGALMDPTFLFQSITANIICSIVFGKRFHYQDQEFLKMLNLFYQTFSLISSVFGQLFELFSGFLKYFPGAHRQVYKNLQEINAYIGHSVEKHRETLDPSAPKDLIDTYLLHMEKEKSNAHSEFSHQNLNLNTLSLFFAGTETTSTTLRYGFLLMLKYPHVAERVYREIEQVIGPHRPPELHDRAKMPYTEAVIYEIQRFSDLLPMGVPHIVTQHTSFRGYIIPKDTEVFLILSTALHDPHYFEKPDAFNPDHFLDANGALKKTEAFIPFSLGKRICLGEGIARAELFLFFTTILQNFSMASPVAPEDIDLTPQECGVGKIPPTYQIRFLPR
Experimental: These incubations were carried out at a concentration of 1 µM and contained 50 pmol/ml of CYP protein. Samples were taken at 0, 5, 10, 15, 20 and 30 minutes. The CLint and t1/2 were calculated from the data.

human liver microsomes = assay: CYP phenotyping, human liver microsomes with or without specific chemical inhibitors; assay type: in vitro ADME; conditions: for Inhibition % / % Remaining at 60 min: human liver microsomes; for % Remaining at 60 min: mean ± SD, n = 3
Experimental: Human liver microsomes with or without specific inhibitors: By using human liver microsomes with chemical inhibitor, compared to without chemical inhibitor, the incubation was carried out at a concentration of 1 µM with samples taken 0, 15, 30, 45 and 60 min, and analyzed by UPLC-MS/MS to quantitate the concentration of parent remaining. The % remaining was calculated.

[1] = Approximate solubility of free form in solvents at 25° C. (manual dilution, visual observation); assay type: physicochemical; conditions: thermodynamic from solid, read-out: Solubility (mg/mL) at 25° C.
Experimental: The experiment was conducted by manual dilution combined with visual observation at 25° C. The total volumes of solvents added were recorded.

For `CN1CCC[C@H](CN2c3ccccc3Sc3ccccc32)C1` [(S)-mepazine, (S)-10-((1-methylpiperidin-3-yl)methyl)-10H-phenothiazine], the Contribution % (human CYP2B6; CYP2B6) was 0.00%, the “metabolism by recombinant CYP isoform” value (human CYP2B6; recombinant CYP2B6) was “not found to substantially metabolize” and the CLint (human CYP2B6; recombinant CYP2B6, 1 µM, turnover not significant and > 80% remaining at last time point reported as 0.00) was 0.00 μL/min/pmol CYP. For the same compound, the t1/2 (human CYP2B6; recombinant CYP2B6, 1 µM, turnover not significant and > 80% remaining at last time point reported as ∞) was “∞”, the “inhibition % of (S)-mepazine metabolism” value (human liver microsomes; human liver microsomes with inhibitor of CYP2C8) was less than 20% and the Inhibition % (human liver microsomes; CYP1A2 (Furafylline)) was 31.6%. The “% Remaining at 60 min” value (human liver microsomes; CYP1A2 (Furafylline)) was 55.3 ± 4.07%, the Inhibition % (human liver microsomes; CYP2A6 (Tranylcypromine)) was 25.6% and the “% Remaining at 60 min” value (human liver microsomes; CYP2A6 (Tranylcypromine)) was 53.4 ± 2.69%. For the same compound, the Inhibition % (human liver microsomes; CYP2B6 (Ticlopidine)) was 22.8%, the “% Remaining at 60 min” value (human liver microsomes; CYP2B6 (Ticlopidine)) was 52.6 ± 3.79% and the Inhibition % (human liver microsomes; CYP2C8 (Montelukast)) was 19.3%. For the same compound, the “% Remaining at 60 min” value (human liver microsomes; CYP2C8 (Montelukast)) was 50.5 ± 4.24%, the Inhibition % (human liver microsomes; CYP2C9 (Sulfaphenazole)) was 33.9% and the “% Remaining at 60 min” value (human liver microsomes; CYP2C9 (Sulfaphenazole)) was 57.4± 2.68%. For the same compound, the Inhibition % (human liver microsomes; CYP2C19 (N-3-benzylnirvanol)) was 24.3%, the “% Remaining at 60 min” value (human liver microsomes; CYP2C19 (N-3-benzylnirvanol)) was 53.1 ± 1.75% and the Inhibition % (human liver microsomes; CYP2D6 (Quinidine)) was 74.4%. The “% Remaining at 60 min” value (human liver microsomes; CYP2D6 (Quinidine)) was 80.9 ± 3.69%, the Inhibition % (human liver microsomes; CYP3A (Ketoconazole)) was 21.4% and the “% Remaining at 60 min” value (human liver microsomes; CYP3A (Ketoconazole)) was 50.2 ± 4.00%. The Inhibition % (human liver microsomes; Without inhibitor) was 0.00%, the “% Remaining at 60 min” value (human liver microsomes; Without inhibitor) was 44.7 ± 2.57% and the solubility ([1]; 1,4-dioxane, organic solvent or mixture) was greater than 100 mg/mL. For the same compound, the solubility ([1]; 2-propanol, organic solvent or mixture) was 33.3 to 50 mg/mL (≈ 107 to 161 mM), the solubility ([1]; DMF, organic solvent or mixture) was greater than 100 mg/mL and the solubility ([1]; acetone, organic solvent or mixture) was greater than 100 mg/mL. For the same compound, the solubility ([1]; acetonitrile, organic solvent or mixture) was 25 to 33.3 mg/mL (≈ 80.5 to 107 mM), the solubility ([1]; dichloromethane, organic solvent or mixture) was greater than 100 mg/mL and the solubility ([1]; ethanol, organic solvent or mixture) was greater than 100 mg/mL. The solubility ([1]; ethyl acetate, organic solvent or mixture) was 50 to 100 mg/mL (≈ 161 to 322 mM), the solubility ([1]; heptane, organic solvent or mixture) was 10 to 14.3 mg/mL (≈ 32.2 to 46.1 mM) and the solubility ([1]; isopropyl acetate, organic solvent or mixture) was 50 to 100 mg/mL (≈ 161 to 322 mM). The solubility ([1]; methanol, organic solvent or mixture) was greater than 100 mg/mL, the solubility ([1]; methyl ethyl ketone, organic solvent or mixture) was greater than 100 mg/mL and the solubility ([1]; t-butyl methyl ether, organic solvent or mixture) was 25 to 33.3 mg/mL (≈ 80.5 to 107 mM). It also gave a solubility ([1]; tetrahydrofuran, organic solvent or mixture) greater than 100 mg/mL, a solubility ([1]; toluene, organic solvent or mixture) greater than 100 mg/mL and a solubility ([1]; water) of less than 2 mg/mL.
